The values that follow are results of earlier work, collected in patent publication US20210298296A1, “METHOD OF PREVENTING MICROBES IN DISPOSABLE PRODUCTS” (priority 2020, published 2021).

The test system of data set [1] is S. aureus, Staphylococcus epidermidis, Propionibacterium acnes.
Data set [2] deals with nail fungus (onychomycosis). To be noted: 117 patients; six months, twice-daily topical 1% clotrimazole or 100% Tea Tree Oil.
The next data set deals with Staphylococcus aureus. To be noted: in vitro.
The test system of data set [3] is influenza virus subtype H1N1.
In data set [4] the test system is cells activated by monocytes. The following applies: water-soluble components of Tea Tree Oil.
Where [5] appears, read: 104 patients, 10% w/w Tea Tree Oil cream vs 1% tolnaftate vs placebo.

For the compound `CC1=CCC2CC1C2(C)C` (stereo not drawn) [alpha-pinene], the “inhibitory effect on all three organisms” value in data set [1] is listed as “inhibitory”.

`CC1=CCC(C(C)(C)O)CC1` (stereo not drawn) [alpha-terpineol]: the “inhibitory effect on all three organisms” value in data set [1] is recorded as “inhibitory”.

On to `Clc1ccccc1C(c1ccccc1)(c1ccccc1)n1ccnc1` [clotrimazole], for which, in [2], the “clinical resolution of the infection” value was “clinically documented resolution of the infection” and the fungus in cultures result is listed as “decrease in fungus in cultures”.

Consider `Cc1cccc(N(C)C(=S)Oc2ccc3ccccc3c2)c1` [tolnaftate], for which, in the data set with tinea pedis (setting [5]), the “conversion to negative culture at the end of therapy” value is recorded as “showed conversion to negative culture” and the “improvements in clinical symptoms” value is listed as “significant improvements in clinical symptoms”. The “cure rate for tinea pedis” value in the data set with tinea pedis (human, in vivo) was 80%.

As to Tea Tree Oil, in the data set with acne vulgaris (P. acnes) (human, in vivo), the “adverse side effects (skin scaling, dryness, irritation)” value is listed as “fewer adverse side effects”.

For `O=C(OOC(=O)c1ccccc1)c1ccccc1` [benzoyl peroxide, reference compound], in the data set on acne vulgaris (P. acnes) (124 patients, 5% Tea Tree Oil gel vs 5% benzoyl peroxide lotion), the “number of inflamed and non-inflamed lesions” value is “significantly reduced the number of inflamed and non-inflamed lesions”.

For `CC1=CCC(O)(C(C)C)CC1` (stereo not shown) [Terpinen-4-ol, 4-methyl-1-(1-methylethyl)-3-cyclohexen-1-ol], the “activity against Staphylococcus aureus, Terpinen-4-ol compared with whole Tea Tree Oil” value in the data set on Staphylococcus aureus is on record as “equally effective”. The “inhibitory effect on all three organisms” value in [1] is recorded as “inhibitory”. The “antiviral activity against influenza virus subtype H1N1” value in [3] is listed as “principally attributed to Terpinen-4-ol”. For the same compound, the “contribution to the antiprotozoal activity of Tea Tree Oil” value with Leishmania major and in the data set on Trypanosoma brucei was “contributed significantly to this activity” each time. For the same compound, the inflammatory response result in data set [4] is reported as “suppress the inflammatory response”. For the same compound, the “growth of human melanoma cells” value in the data set on human melanoma cells is given as “impair the growth of human melanoma cells”.
